One data set deals with SNU-398 cells. The experiment in a line: Caspase 3/7 assay in SNU-398 cells. The class given is cell-based, human. The conditions noted are these: SNU-398 after knockdown. An excerpt: FIGS. 25A-25G: Functional roles of SALL4 in HCC. (25A) qPCR analysis of relative SALL4A and SALL4B expression on SNU-398 cells four days post-transduction. Error bars indicate standard error of three replicates. (25B) Western blot analysis of SALL4 expression on SNU-398 cells four days post-transduction. (25C) MTS analysis of cell viability upon gene knockdown by scrambled control shRNA (Scr) or E5 shRNA targeting SALL4 (E5) on SNU-398 (left) or SNU-387 (right) cells. Error bars indicate standard error of three replicates. (25D) Cell counting assay using trypan blus stain. […] (25F) Effects of SALL4 gene knockdown on tumorigenecity of HuH-7 cells. Representative images of mice transplanted with HuH-7 cells infected with virus expressing scrambled shRNA or E5 shRNA (top).
To further characterize the effects of loss of SALL4 in HCC cells, more functional assays in SNU-398 cells, which express high SALL4, were carried out. […] Furthermore, increased apoptosis in SALL4-knockdown HCC cells was observed by assessing caspase activities. Increased caspase 3/7 activities was observed upon loss of SALL4 in SNU-398 HCC cells (FIG. 30D), as well as increased cleaved caspase 3 (FIG. 30E).

For data set [1], the system named is H661 lung carcinoma cells. The experiment in a line: MTS assay in lung carcinoma cells after knock-down. The class given is cell-based. An excerpt: FIGS. 16A-16B: Loss of SALL4 in lung cancer cells that express high level of SALL4 decreases cell viability. (16A) qPCR (bar chart) and western blot were done to confirm the dwonregulation of SALL4 RNA (qPCR) and protein (western blot) expression levels upon SALL4 gene knockdown by shRNA (E5) compared to the control (SC).
In general terms: Formazan colour is commonly taken as a measure of viable cells.

Another data set deals with PTEN. As to the kind of experiment: PTEN expression upon SALL4 gene knockdown in HCC cells (qPCR, Western blot densitometry). Type of data set: cell-based, human. The settings on record: day 4 post-transduction. An excerpt: FIGS. 26A-26C: PTEN repression as a mechanism of SALL4-induced HCC. (26A) qPCR analysis of PTEN expression upon SALL4 gene knockdown. […] E5 shRNA is a shRNA specifically targets SALL4. (26B) Western blot analysis of PTEN protein expression upon SALL4 gene knockdown using fractionated nuclear (N) and cytoplasmic […] lysates. A total cell lysate (T) was used for protein expression analysis too. SALL4 is exclusively present in cell nuclei (left). Densitometry analysis of total PTEN expression (top right) and cytoplasmic PTEN expression (bottom right).
PTEN expression upon SALL4 gene knockdown was investigated by qPCR and western blot.
(In qPCR the cycle at which signal appears reflects the starting amount.)

For another data set, the system named is HDAC1 and HDAC2. The experiment in a line: Anti-FITC pull-down from HL60 cell lysates, immunoblot for HDAC1 and HDAC2. Type of data set: binding, human. How it is done:
FIG. 18: SALL4 peptide interacts with various components of the NuRD complex. Cell lysates from HL60 cells were mixed with wild type (wt) or mutant (mut) peptides end-labeled with FITC and immunoprecipitated with anti-FITC antibody (Santa Cruz). The complexes were pulled down with Dynabeads Antibody Coupling Kit (Invitrogen) according to the manufacturer's instructions. The samples were immunoblotted and probed for HDAC1 and HDAC2. […] The specificity was tested with mouse IgG instead of anti-FITC antibody.
(A western blot detects proteins with antibodies after separation by electrophoresis.)

Another data set relates to HL60. The experiment in a line: Cellular uptake of FITC-labeled peptide. The class given is cell-based, human. How it is done: (§1) Cells were grown typically in 6 well plates (35 mm dish) to 50-70% confluence. Usually the transfect ion efficiency is somehow cell type specific. 2 mM peptide was diluted 4 times in PBS (2 ul+6 ul) (For FITC peptidedo not dilute the 2 mM stock). For each transfection reaction tube with 100 ul PBS+1 ul diluted peptide was set up. Chariot reagent was diluted 1:10 in ddH2O and for each transfection a 94 ul H2O tube+6 ul diluted Chariot was prepared (No master mix for more than 4 transfections). The 2 tubes were carefully mixed by pipetting up and down and incubated 30 min. at room temperature. Medium was aspirated from the dish (well) and cells were overlay with the mix. 400 ul serum free medium was added and cells were incubated further for 1 h 37 C (cell incubator). 500 ul complete medium (with 10% serum) was finally added. If cells are not very sensitive to serum starvation (cancer cell lines) 5% serum could be used.
(§2) Fluorescent and Confocal microscopy was performed on cells treated with FITC labeled peptides with or without of transfection reagent depending on the cell type. Cells were mounted on cover slips using mounting media with DAPI (Invitrogen) and in some cases cytoskeleton dye (Invitrogen).
(§3) In order to evaluate their cellular uptake and localization, the N terminus of these peptides was labeled with fluorescein isothiocyanate (FITC). Despite the net positive charge of these peptides, their uptake by the cells is cell-type specific. Some cell lines such as HL-60 (an AML cell line) allowed the peptide to enter the cells without any modification or carrier, and some cell lines were not penetrable at all. In order to achieve a similar level of peptide delivery in most cell types, a Chariot Transfection Reagent (Active Motif) was used as a peptide carrier, as directed from the manufacturer. All cell types used in the study described herein were subjected to individual evaluation of the percentage of the cells in which the peptide was delivered as well as the duration of time during which they sustained the labeled peptide in the cells. After Chariot treatment, confocal microscopy studies confirmed uptake of these peptides throughout the cell, including nuclei (as evidenced by DAPI overlay, FIG. 1B).

The subject of another data set is HuH-7. The experiment in a line: Cellular uptake of FITC-labeled peptide. Type of data set: cell-based, human. How it is done: as §1, §2, §3
A further data set deals with AML3. The experiment in a line: Cellular uptake of FITC-labeled peptide. The class given is cell-based. How it is done: as §1, §2, §3
Another data set deals with CD34+. As to the kind of experiment: Cellular uptake of FITC-labeled peptide. The class given is cell-based. How it is done:
as §1, §2, §3

The test system of another data set is HeLa. The experiment in a line: Cellular uptake of FITC-labeled peptide. Type of data set: cell-based. How it is done:
as §1, §2, §3

Another data set relates to KG1a. As to the kind of experiment: Cellular uptake of FITC-labeled peptide. The class given is cell-based. How it is done:
as §1, §2, §3

A further data set deals with MCF7. As to the kind of experiment: Cellular uptake of FITC-labeled peptide. The class given is cell-based. How it is done:
as §1, §2, §3

The next data set has as its system NP4. The experiment in a line: Cellular uptake of FITC-labeled peptide. The class given is cell-based. How it is done:
as §1, §2, §3

The test system of another data set is PTEN/AKT pathway. The experiment in a line: PTEN/AKT pathway expression in KBM5 cells (Western blot). Type of data set: cell-based. An excerpt: To further evaluate the specificity of the SALL4/PTEN pathway, next investigated was whether wild type peptide treatment could affect the expression of PTEN and its downstream target, phosphorylated AKT (pAKT).

A value given as a limit tells only on which side of the number the result lay.

Turning to “CTATTTAGCCAAAGGCAAA (short hairpin RNA, chemistry and delivery not given here, further chemistry not given here) [E5 shRNA]”, in the data set on SNU-398 cells, the “caspase 3/7 activity (apoptosis)” value is recorded as “increase in apoptosis activity”. In addition, the “cell viability (MTS)” value in [1] was “decrease of cell viability”. Also, the “increase of PTEN mRNA” value in the data set on PTEN is 16.5%.
As for “H-MSRRKQAKPQHI-OH [wt peptide, MSRRKQAKPQHI]”, the “binding to HDAC1 and HDAC2” value with HDAC1 and HDAC2 is listed as “several folds higher activity than the mutant”. Further, the “peptide uptake (cells with peptide)” value in the data set on HL60 (HL60, no carrier) was about 50%; in the data set with HL60 (HL60, with Chariot), 70%; in the data set with HuH-7 (HuH-7, no carrier), 0%; in the data set on HuH-7 (HuH-7, with Chariot), 60%; in the data set on AML3 (AML3, no carrier), about 5%; in the data set on AML3 (AML3, with Chariot) it was 50%. Besides, the “peptide uptake (cells with peptide)” value in the data set on CD34+ (no carrier) is given as 0%; with CD34+ (with Chariot), 50%; in the data set with HeLa (no carrier) it was 0%; in the data set with HeLa (with Chariot) it was 80%; in the data set on KG1a (no carrier), over 10%; in the data set on KG1a (with Chariot), 60%. For the same substance, the “peptide uptake (cells with peptide)” value in the data set on MCF7 (MCF7, no carrier) is on record as about 50%; in the data set with MCF7 (MCF7, with Chariot) it was 70%; with NP4 (NP4, no carrier), over 1%; in the data set with NP4 (NP4, with Chariot) it was over 5%. For the same substance, in the data set with PTEN/AKT pathway, the “levels of PTEN and pAKT” value is reported as “little or no effect”.

The values above are taken from US9365851B2, “Spalt-like transcription factor 4 (SALL4) and uses thereof” (National University of Singapore, priority 2011, dated 2016).
